According to ChEMBL document CHEMBL1137975, “DNA binding ligands with in vivo efficacy in murine models of bacterial infection: optimization of internal aromatic amino acids” (2004):
≈ marks a conversion by molar mass, not a printed value.

Columns and labels:
Staphylococcus aureus = assay: Minimum inhibitory concentration in mice against antimicrobial activity in methicillin-resistant Staphylococcus aureus(MRSA 27660).; type: functional
Enterococcus faecalis = assay: Minimum inhibitory concentration in mice against antimicrobial activity in vancomycin-sensitive Enterococcus faecalis (VSEF 29212).
[1] = Minimum inhibitory concentration in mice against antimicrobial activity in […] (PISP 49619).; type: functional; conditions: Streptococcus pneumoniae
Mus musculus [2] = species on record: Mus musculus; assay: Minimum inhibitory concentration was evaluated in mice against antimicrobial activity in […] (PISP 49619); 1-2; type: functional
Mus musculus [3] = species on record: Mus musculus; assay: Minimum inhibitory concentration was evaluated in mice against antimicrobial activity in […] Enterococcus faecalis (VSEF 29212); 0.5-2; type: functional
Mus musculus [4] = species on record: Mus musculus; assay: Minimum inhibitory concentration was evaluated in mice against antimicrobial activity in methicillin-resistant Staphylococcus aureus(MRSA 27660); 0.25-1; type: functional
Mus musculus [5] = species on record: Mus musculus; assay: Minimum inhibitory concentration was evaluated in mice against antimicrobial activity in methicillin-resistant Staphylococcus aureus(MRSA 27660); 1-2; type: functional
Mus musculus [6] = species on record: Mus musculus; assay: Minimum inhibitory concentration was evaluated in mice against antimicrobial activity in […] (PISP 49619); 0.13-0.25; type: functional
Mus musculus [7] = species on record: Mus musculus; assay: Minimum inhibitory concentration was evaluated in mice against antimicrobial activity in […] (PISP 49619); 0.5-1; type: functional

SMILES	MIC (Staphylococcus aureus) [µg/mL]	MIC (Enterococcus faecalis) [µg/mL]	MIC [1] [µg/mL]	also measured
Cn1cc(NC(=O)c2ccc(NC(=O)c3cc(NC(=O)c4nccc5ccccc45)cn3C)cc2)cc1C(=O)NCCN1CCOCC1	1 (≈ 1.54 µM)	2 (≈ 3.08 µM)	0.25 (≈ 0.385 µM)	–
Cn1cc(NC(=O)c2cc(NC(=O)c3cc(NC(=O)c4cc5ccccc5cn4)cn3C)c[nH]2)cc1C(=O)NCCN1CCOCC1	–	–	–	MIC (Mus musculus [2]): 2 µg/mL (≈ 3.14 µM); MIC (Mus musculus [3]): 2 µg/mL (≈ 3.14 µM); MIC (Mus musculus [4]): 1 µg/mL (≈ 1.57 µM)
CC(C)n1cc(NC(=O)c2cc(NC(=O)c3sccc3Cl)cn2C)cc1C(=O)Nc1cc(C(=O)NCCN2CCOCC2)n(C)c1	1 (≈ 1.49 µM)	1 (≈ 1.49 µM)	0.5 (≈ 0.747 µM)	–
Cn1cc(NC(=O)c2sccc2Cl)cc1C(=O)Nc1cc(C(=O)Nc2cn(C)c(C(=O)NCCN3CCOCC3)n2)n(C)c1	> 32	> 32	> 32	–
CC(C)n1cc(NC(=O)c2cc(NC(=O)c3cc(NC(=O)c4sccc4Cl)cn3C)cn2C)cc1C(=O)NCCN1CCOCC1	1 (≈ 1.49 µM)	1 (≈ 1.49 µM)	0.25 (≈ 0.374 µM)	–
Cn1cc(NC(=O)c2cc(NC(=O)c3cc(NC(=O)c4sccc4Cl)c[nH]3)cn2C)cc1C(=O)NCCN1CCOCC1	8 (≈ 12.8 µM)	2 (≈ 3.19 µM)	2 (≈ 3.19 µM)	–
Cn1cc(NC(=O)c2cc(NC(=O)CCNC(=O)c3cc4ccccc4cn3)cn2C)cc1C(=O)NCCN1CCOCC1	32 (≈ 53.3 µM)	16 (≈ 26.6 µM)	8 (≈ 13.3 µM)	–
Cn1cc(NC(=O)c2cc(NC(=O)c3nc(NC(=O)c4cc5ccccc5cn4)cn3C)cn2C)cc1C(=O)NCCN1CCOCC1	1 (≈ 1.53 µM)	1 (≈ 1.53 µM)	0.25 (≈ 0.383 µM)	–
Cn1cc(NC(=O)c2sccc2Cl)cc1C(=O)Nc1cc(C(=O)Nc2cccc(C(=O)NCCN3CCOCC3)c2)n(C)c1	16 (≈ 25.1 µM)	16 (≈ 25.1 µM)	8 (≈ 12.5 µM)	–
Cn1cc(NC(=O)c2cc(NC(=O)c3cc(NC(=O)c4cc5ccccc5cn4)cs3)cn2C)cc1C(=O)NCCN1CCOCC1	–	–	–	MIC (Mus musculus [5]): 2 µg/mL (≈ 3.05 µM); MIC (Mus musculus [6]): 0.25 µg/mL (≈ 0.382 µM)
Cn1cc(NC(=O)c2ccc(NC(=O)c3cc(NC(=O)c4ccccn4)cn3C)cc2)cc1C(=O)NCCN1CCOCC1	> 32	> 32	0.5 (≈ 0.835 µM)	–
Cn1cc(NC(=O)c2cc(NC(=O)c3cccc(NC(=O)c4sccc4Cl)c3)cn2C)cc1C(=O)NCCN1CCOCC1	> 32	> 32	> 32	–
Cn1cc(NC(=O)c2nc(NC(=O)c3cc(NC(=O)c4sccc4Cl)cn3C)cn2C)cc1C(=O)NCCN1CCOCC1	> 32	> 32	16 (≈ 24.9 µM)	–
Cn1cc(NC(=O)c2ccc(NC(=O)c3cc(NC(=O)c4ccncn4)cn3C)cc2)cc1C(=O)NCCN1CCOCC1	> 32	32 (≈ 53.4 µM)	0.5 (≈ 0.834 µM)	–
Cn1cc(NC(=O)c2cc(NC(=O)c3cc(NC(=O)c4cc5ccccc5cn4)c[nH]3)cn2C)cc1C(=O)NCCN1CCOCC1	–	0.5 (≈ 0.784 µM)	–	MIC (Mus musculus [7]): 1 µg/mL (≈ 1.57 µM); MIC (Mus musculus [5]): 2 µg/mL (≈ 3.14 µM)
CC(=O)NCC1CN(c2ccc(N3CCOCC3)c(F)c2)C(=O)O1 (single isomer, unassigned) [LINEZOLID]	–	–	1 (≈ 2.96 µM)	–
Cn1cc(NC(=O)c2ccc(NC(=O)c3cc(NC(=O)c4ccc(F)cc4F)cn3C)cc2)cc1C(=O)NCCN1CCOCC1	32 (≈ 50.5 µM)	8 (≈ 12.6 µM)	0.5 (≈ 0.789 µM)	–
Cn1cc(NC(=O)c2ccc(NC(=O)c3cc(NC(=O)c4cc5cc6c(cc5cn4)OCO6)cn3C)cc2)cc1C(=O)NCCN1CCOCC1	0.06 (≈ 0.0866 µM)	0.5 (≈ 0.722 µM)	0.5 (≈ 0.722 µM)	–
Cn1cc(NC(=O)c2ccc(NC(=O)c3cc(NC(=O)c4sccc4Cl)cn3C)cc2)cc1C(=O)NCCN1CCOCC1	8 (≈ 12.5 µM)	2 (≈ 3.13 µM)	1 (≈ 1.57 µM)	–
Cn1cc(NC(=O)c2cccc(NC(=O)c3cc(NC(=O)c4sccc4Cl)cn3C)c2)cc1C(=O)NCCN1CCOCC1	> 32	> 32	> 32	–
